Consider three compounds from patent US9255063B2, “Colchicine solid-state forms; methods of making; and methods of use thereof” (Takeda Pharmaceuticals U.S.A., Inc., priority 2008, dated 2016).

For series [1] the following is noted: 81% RH; nitrogen; 38 days. The protocol: Five techniques are used to find colchicine solid forms: 1) suspension equilibration, 2) precipitation 3) drying and water vapor adsorption, 4) evaporation, and 5) melt quench. Suspension equilibration generally is carried out by slurrying the colchicine in a solvent system, optionally including an antisolvent. Precipitation generally is carried out by adding an antisolvent to a solution of colchicine. Evaporation technique is generally carried out by allowing the solvent of a solution of colchicine to evaporate to induce crystallization of the colchicine. Water vapor adsorption technique generally involves exposing colchicine to a controlled humid environment so that the material takes up water. The drying experiments can be performed under inert atmospheres (e.g., nitrogen). Melt quench generally involves fast cooling a melt to form a solid.

For series [2] the following is noted: TG-FTIR, N2 atmosphere, heating rate 10 K/min, range 25° C. to 350° C.

Structures are written as SMILES.

Take `COc1cc2c(c(OC)c1OC)-c1ccc(OC)c(=O)cc1[C@@H](NC(C)=O)CC2` [Form A, (−)-N-[(7S,12aS)-1,2,3,10-tetramethoxy-9-oxo-5,6,7,9-tetrahydrobenzo[a]heptalen-7-yl]-acetamide]: in series [1], the “Ethyl acetate content after water vapor adsorption” value is 2% ethyl and the “Water content after water vapor adsorption” value worked out at 4% water and. In addition, the “Decomposition is observed above (temperature)” value (“Decomposition is observed above” below) in series [2] was “above 275 °C”.

For `COc1cc2c(c(OC)c1OC)-c1ccc(OC)c(=O)cc1[C@@H](NC(C)=O)CC2` [Form E], the “Decomposition is observed above” value in series [2] is “above 250 °C”.

As to `COc1cc2c(c(OC)c1OC)-c1ccc(OC)c(=O)cc1[C@@H](NC(C)=O)CC2` [Form F], the “Decomposition is observed above” value in series [2] is “above 280 °C”.
